Measurements published in BindingDB's records for doi:10.1021/jm00101a006 (University of Illinois, 1992).

How the values were obtained:
[1] = target: T1, Urokinase-type plasminogen activator (Homo sapiens, UniProt P00749); assay: Compound was tested for the rate constant of deacylation against the enzyme Urokinase-type plasminogen activator; conditions: read-out: koff (s-1)
[2] = target: T1, Urokinase-type plasminogen activator; assay: Compound was tested for the rate constant of deacylation against Urokinase-type plasminogen activator
[3] = target: T2, Serine protease 1 (Bos taurus, UniProt P00760); assay: Compound was tested for the rate constant of deacylation against the enzyme trypsin
T2 sequence (P00760 whole entry): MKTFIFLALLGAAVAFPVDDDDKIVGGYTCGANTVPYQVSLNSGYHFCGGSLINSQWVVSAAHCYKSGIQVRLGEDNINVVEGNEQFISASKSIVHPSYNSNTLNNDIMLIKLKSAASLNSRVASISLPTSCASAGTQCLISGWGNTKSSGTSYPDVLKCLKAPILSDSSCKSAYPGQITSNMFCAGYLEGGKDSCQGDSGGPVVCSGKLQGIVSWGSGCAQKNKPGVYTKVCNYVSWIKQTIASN

[4] = target: T1, Urokinase-type plasminogen activator; assay: Compound was tested for the rate constant of deacylation against Urokinase-type plasminogen activator

`NC(N)=Nc1ccc(C2C/C(=C/I)OC(=O)C2NC(=O)c2ccccc2)cc1` (stereo not given) was tested, and the koff [1] was 1.3e-05 s⁻¹ and the koff [2] was 1.3e-05 s⁻¹.
`C=C1CC(c2ccc(N=C(N)N)cc2)C(NC(=O)c2ccccc2)C(=O)O1` (stereo not given) gave a koff [3] of 0.00025 s⁻¹ and a koff [4] of 3.3e-05 s⁻¹.
For `NC(N)=Nc1ccc(C2CC(=O)O/C(=C\I)C2)cc1` (stereo not given), the koff [3] was 0.00033 s⁻¹.
